The source of these data is patent US20140256664A1, “COMPOSITIONS AND METHODS FOR A MYCOBACTERIUM TUBERCULOSIS DRUG SUSCEPTIBILITY TEST” (priority 2011, published 2014).

Where “and” joins values, the source holds several entries; their conditions need not be identical. Equal values may be shown once. Where a name gives a salt, the structure may show the parent alone. Read-outs that look alike come from different tables or passages of the source.

Common to all, as to assay type: cell-based, Mycobacterium tuberculosis
Experiment [1] concerns 33 isolates of M. tuberculosis.
Experiment [2] deals with M. tuberculosis isolates.
Experiment [3] has as its system M. tuberculosis isolates. The source holds these as a separate data set.
Experiment [4] has as its system clinical MDR strain (INH, RIF, EMB, STR resistant).

For the compound `NCC[C@H](O)C(=O)N[C@@H]1C[C@H](N)[C@@H](O[C@H]2O[C@H](CN)[C@@H](O)[C@H](O)[C@H]2O)[C@H](O)[C@H]1O[C@H]1O[C@H](CO)[C@@H](O)[C@H](N)[C@H]1O` [Amikacin, amikacin], in experiment [1], the “D29 phage assay Resistant (n isolates)” value is 1(−2.9) and 1(2.4); the “D29 phage assay susceptible (n isolates)” value turned out to be 0; the “ΔCt of D29 phage assay resistant isolates” value is 1(−2.9) and 1(2.4). In addition, the “D29 phage assay Resistant (n isolates)” value in experiment [1] (listed as AMK) amounted to 0. In addition, in experiment [2], the “MIC of agar proportion resistant isolates” value is 1(16) μg/ml and 1(8) μg/ml. In addition, in experiment [3], the “Agar proportion Resistant (n isolates)” value is 1(16) and 1(8); the “Agar proportion susceptible (n isolates)” value is reported as 0. Besides, in experiment [3] (listed as AMK), the “Agar proportion Resistant (n isolates)” value amounted to 0.

For `CC[C@@H](CO)NCCN[C@@H](CC)CO` [Ethambutol, ethambutol hydrochloride], the “D29 phage assay Resistant (n isolates)” value in experiment [1] (listed as EMB, hydrochloride) is recorded as 0. Besides, the “Agar proportion Resistant (n isolates)” value in experiment [3] (listed as EMB, hydrochloride) came out at 0.

For the compound `NNC(=O)c1ccncc1` [Isoniazid, isoniazid], in experiment [1], the “D29 phage assay susceptible (n isolates)” value is recorded as 0. For the same compound, the “D29 phage assay Resistant (n isolates)” value in experiment [1] (listed as INH) is 1 and 2. Moreover, in experiment [3], the “Agar proportion susceptible (n isolates)” value is 0. Moreover, in experiment [4], the “number of phage / real-time PCR Ct value after drug pre-treatment” value was “the phage number increased/Ct value decreased”.

As to `CO[C@H]1/C=C/O[C@@]2(C)Oc3c(C)c(O)c4c(O)c(c(/C=N/N5CCN(C)CC5)c(O)c4c3C2=O)NC(=O)/C(C)=C\C=C\[C@H](C)[C@H](O)[C@@H](C)[C@@H](O)[C@@H](C)[C@H](OC(C)=O)[C@@H]1C` [Rifampin, rifampin], the “D29 phage assay susceptible (n isolates)” value in experiment [1] is listed as 0. Besides, the “Agar proportion susceptible (n isolates)” value in experiment [3] came to 0. For the same compound, the “number of phage / real-time PCR Ct value after drug pre-treatment” value in experiment [4] is listed as “the phage number increased/Ct value decreased”. For the same compound, the “ΔCtRIF (Ct control−Ct drug)” value in experiment [4] ([…], drug, Tb inoculum and phage added at once, 24 h) is on record as −1.

Take capreomycin sulfate: in experiment [1], the “D29 phage assay Resistant (n isolates)” value is 1(−5.4) and 1(−3.3); the “D29 phage assay susceptible (n isolates)” value was determined as 0; the “ΔCt of D29 phage assay resistant isolates” value is 1(−5.4) and 1(−3.3). Besides, in experiment [1] (listed as CAP), the “D29 phage assay Resistant (n isolates)” value worked out at 1 and the “ΔCt of D29 phage assay resistant isolates” value is recorded as −5.4. In addition, in experiment [3], the “Agar proportion Resistant (n isolates)” value is 1(ND) and the “Agar proportion susceptible (n isolates)” value is 0. Besides, the “Agar proportion Resistant (n isolates)” value in experiment [3] (listed as CAP) is 0.
